# Key:
# cells = settings: Homo sapiens, MKN-1
# [1] = system: von Hippel-Lindau disease tumor suppressor/GTPase KRas (Homo sapiens), P01116+P40337 [G12C]; assay: Protac activity at VHL/KRAS G12C mutant in human SW1573 cells assessed as induction of protein degradation by measuring maximal efficacy at […] incubated for 72 hrs by Western blot analysis relative to control; assay type: cell-based; settings: dose 2.5 µM
# [2] = target: von Hippel-Lindau disease tumor suppressor/GTPase KRas (Homo sapiens, UniProt P01116+P40337, G12C); assay: Protac activity at VHL/KRAS G12C mutant in human NCI-H2030 cells assessed as degradation of KRAS G12C mutant incubated for 24 hrs by immunoblot assay; assay type: cell-based
# GTPase KRas [3] = target: GTPase KRas (Homo sapiens, UniProt P01116, G12V); assay: Binding affinity to Cys12 residue of GDP bound human KRAS […] mutant expressed in Escherichia coli BL21 Rosetta cells assessed as dissociation constant by HSQC NMR spectral analysis
# GTPase KRas [4] = target: GTPase KRas (Homo sapiens, UniProt P01116, G12C); assay: Inhibition of KRAS G12C mutant (unknown origin)
# [5] = system: GTPase KRas (Homo sapiens), P01116 [G12C]; assay: Inhibition of KRAS G12C mutant (unknown origin) at 10 uM relative to control
# [6] = Inhibition of ERK phosphorylation in human NCI-H358 cells incubated for 3 hrs; assay type: cell-based; settings: NCI-H358, 3 h
# [7] = system: von Hippel-Lindau disease tumor suppressor/GTPase KRas (Homo sapiens), P01116+P40337 [G12C]; assay: PROTAC activity at VHL/KRAS G12C mutant in human NCI-H2030 cells assessed as induction of protein degradation by measuring maximal efficacy at […] incubated for 24 hrs by Immunoblotting analysis relative to control; assay type: cell-based; settings: dose 2.5 µM
# [8] = Inhibition of ERK phosphorylation in human NCI-H358 cells harboring KRAS G12C mutant incubated for 6 hrs by Western blot analysis; assay type: cell-based; settings: NCI-H358, 6 h
# NCI-H441 = assay: Antiproliferative activity against human NCI-H441 cells harboring KRAS G12V mutant assessed as reduction in cell viability incubated for 72 hrs by MTT assay; assay type: functional, cell-based; settings: NCI-H441, 72 h
# NCI-H358 [9] = assay: Antitumor activity against human NCI-H358 cells harboring KRAS G12C mutant xenografted in mouse model assessed as tumor growth inhibition at 10 mg/kg, po relative to control; assay type: functional; set-up: scale not given: the % may be the effect or the level left
# NCI-H358 [10] = assay: Antitumor activity against human NCI-H358 cells harboring KRAS G12C mutant xenografted in mouse model assessed as tumor growth inhibition at 100 mg/kg, po relative to control; assay type: functional; set-up: scale not given: the % may be the effect or the level left
# NCI-H358 [11] = assay: Antitumor activity against human NCI-H358 cells harboring KRAS G12C mutant xenografted in mouse model assessed as tumor growth inhibition at 30 mg/kg, po relative to control; assay type: functional; set-up: scale not given: the % may be the effect or the level left
# [12] = Oral bioavailability in Beagle dog; assay type: ADME, organism-based, Canis lupus familiaris; settings: in vivo
# [13] = Oral bioavailability in CD-1 mouse; assay type: ADME, organism-based; settings: in vivo
# [14] = Volume of distribution at steady state in iv dosed Beagle dog; assay type: ADME, organism-based, Canis lupus familiaris; settings: in vivo, read-out: Vdss
# [15] = Clearance in iv dosed CD-1 mouse; assay type: ADME, organism-based; settings: in vivo
# [16] = Oral bioavailability in Sprague-Dawley rat; assay type: ADME, organism-based; settings: in vivo
# [17] = Volume of distribution at steady state in iv dosed CD-1 mouse; assay type: ADME, organism-based; settings: in vivo, read-out: Vdss
# [18] = Volume of distribution at steady state in iv dosed Sprague-Dawley rat by LC-MS/MS analysis; assay type: ADME, organism-based; settings: in vivo, read-out: Vdss
compound,measurement,setting,value
Cc1c([C@@H](C)Nc2nnc(C)c3ccc(N4CCNCC4)cc23)cccc1C(F)(F)F,IC50,cells,0.074 µM
C=C(F)C(=O)N1CCN(c2nc(OC[C@@H]3CCCN3CCCCOCCC(=O)N[C@H](C(=O)N3C[C@H](O)C[C@H]3C(=O)NCc3ccc(-c4scnc4C)cc3)C(C)(C)C)nc3c2CCN(c2cccc4cccc(Cl)c24)C3)C[C@@H]1CC#N,Emax,[1],90%
same,DC50,[2],0.88 µM
C[C@]1(c2nc(-c3cccc(N)c3)no2)CCCc2sc(N)c(C#N)c21,Kd,GTPase KRas [3],< 10 µM
C=CC(=O)N1CCN(c2nc(OCC34CCCN3CCC4)nc3c2cc(-c2cccc4cccc(C)c24)n3C)C[C@@H]1CC#N,IC50,GTPase KRas [4],1.54 µM
same,inhibition,[5],91.3%
C=CC(=O)N1CCN(c2nc(OC[C@@H]3CCCN3C)nc3c2CCN(c2cccc4ccccc24)C3)CC1,IC50,[6],4.4 µM
Cc1c([C@@H](C)Nc2nnc(C)c3cnc(N4CCOCC4)cc23)cccc1C(F)(F)F,IC50,cells,0.026 µM
C=C(F)C(=O)N1CCN(c2nc(OC[C@@H]3CCCN3CCCOCCC(=O)N[C@H](C(=O)N3C[C@H](O)C[C@H]3C(=O)NCc3ccc(-c4scnc4C)cc3)C(C)(C)C)nc3c2CCN(c2cccc4cccc(Cl)c24)C3)C[C@@H]1CC#N,Emax,[1],90%
same,Emax,[7],75%
same,DC50,[2],0.59 µM
C=CC(=O)N1CC2(CC(n3nc(-c4ccc5[nH]ncc5c4)c(-c4c(Cl)c(C)cc5[nH]ncc45)c3C)C2)C1,IC50,[8],0.02 µM
C=C(F)C(=O)N1CCN(c2nc(OC[C@@H]3CCCN3CCC(=O)NCCC(=O)N[C@H](C(=O)N3C[C@H](O)C[C@H]3C(=O)NCc3ccc(-c4scnc4C)cc3)C(C)(C)C)nc3c2CCN(c2cccc4cccc(Cl)c24)C3)C[C@@H]1CC#N,Emax,[7],85%
same,DC50,[2],6.4 µM
C=CC(=O)N1CC2(CC(n3nc(-c4ccccc4)c(-c4c(Cl)c(C)cc5[nH]ncc45)c3C)C2)C1,IC50,[8],0.04 µM
C=C(F)C(=O)N1CCN(c2nc(OC[C@@H]3CCCN3CCC(=O)NCCOCCOCCC(=O)N[C@H](C(=O)N3C[C@H](O)C[C@H]3C(=O)NCc3ccc(-c4scnc4C)cc3)C(C)(C)C)nc3c2CCN(c2cccc4cccc(Cl)c24)C3)C[C@@H]1CC#N,Emax,[7],30%
C=CC(=O)N1CCN(c2nc(OC[C@@]34CCCN3C[C@H](F)C4)nc3c2cc(-c2cccc4cccc(C)c24)n3C)C[C@@H]1CC#N,IC50,GTPase KRas [4],0.34 µM
same,inhibition,[5],98.6%
C=CC(=O)N1CCN(c2nc(OC[C@@H]3CCCN3C)nc3c2CCN(c2cccc4ccccc24)C3)C[C@@H]1CC#N,IC50,[6],0.01 µM
C=CC(=O)N1CCN(c2nc(OC[C@@H]3CCCN3C)nc3c2cc(-c2cccc4ccccc24)n3C)C[C@@H]1CC#N,inhibition,[5],17%
CC1(C)CCCc2sc(N)c(C#N)c21,IC50,NCI-H441,< 10 µM
C=C(F)C(=O)N1CCN(c2nc(OC[C@@H]3CCCN3CCC(=O)NCCOCCC(=O)N[C@H](C(=O)N3C[C@H](O)C[C@H]3C(=O)NCc3ccc(-c4scnc4C)cc3)C(C)(C)C)nc3c2CCN(c2cccc4cccc(Cl)c24)C3)C[C@@H]1CC#N,Emax,[7],35%
C=CC(=O)N1CCN(c2nc(OC[C@@H]3CCCN3C)nc3c2cc(-c2cccc4cccc(C)c24)n3C)C[C@@H]1CC#N,inhibition,[5],39.8%
C=CC(=O)N1CC2(CC(n3nc(-c4ccc5c(cnn5C)c4)c(-c4c(Cl)c(C)cc5[nH]ncc45)c3C)C2)C1 [OPNURASIB],IC50,[8],0.02 µM
C=C(F)C(=O)N1CCN(c2nc(OC[C@@H]3CCCN3CCOCCOCCC(=O)N[C@H](C(=O)N3C[C@H](O)C[C@H]3C(=O)NCc3ccc(-c4scnc4C)cc3)C(C)(C)C)nc3c2CCN(c2cccc4cccc(Cl)c24)C3)C[C@@H]1CC#N,Emax,[1],50%
same,DC50,[2],> 10 µM
C=CC(=O)N1CCN(c2nc(OC[C@@H]3CCCN3C)nc3c2CCN(c2cccc4cccc(Cl)c24)C3)C[C@@H]1CC#N,Activity,NCI-H358 [9],70%
same,Activity,NCI-H358 [10],90%
same,Activity,NCI-H358 [11],89%
C=CC(=O)N1CC2(CC(n3nc(C(C)C)c(-c4c(C)ccc5[nH]ncc45)c3C)C2)C1,IC50,[8],3.9 µM
N#Cc1c(N)sc2c1CCCC2,IC50,NCI-H441,16 µM
C[C@]1(c2nc(-c3ccc(N)cc3)no2)CCCc2sc(N)c(C#N)c21,Kd,GTPase KRas [3],< 10 µM
Cc1c(C#N)cccc1[C@@H](C)Nc1nnc(C)c2cnc(N3CCOCC3)cc12 [MRTX-0902],bioavailability,[12],38%
same,bioavailability,[13],38%
same,Vd,[14],0.28 L/kg
same,clearance,[15],4.4 mL/min/kg
same,bioavailability,[16],38%
same,Vd,[17],0.28 L/kg
same,Vd,[18],0.28 L/kg

# Source: ChEMBL document CHEMBL5634082, “Recent advances in the development of inhibitors targeting KRAS-G12C and its related pathways” (Eur J Med Chem, 2023)
